We go through one substance from patent publication US20230330196A1, “IMMUNOSUPPRESSIVE AGENTS” (The Trustees of Columbia University in the City of New York, priority 2020, published 2023).

In the test the test system is allo-reactive T cells. In words: Mixed lymphocyte reaction, B6 SPCs cocultured with irradiated BALB/c SPCs with WT or E223A mutant MMP13. In kind it is cell-based, mouse. As to conditions: 5 days coculture. As to the method:
Flow cytometric analysis: Single-cell suspensions were filtered through nylon mesh and stained with the following antibodies: CD3, CD4, CD8, CD25, IFN-g, PD-L1, CD11c, B220, CD11b, F4/80, and then analyzed by FCM using Fortessa.
SPCs from B6 mice were seeded at 5×10e5/well, cocultured with irradiated BALB/c SPCs (5×10e5/well) in the presence of recombinant human MMP13 (WT-MMP13) or mutant MMP13 (E223A, muMMP13) proteins for 5 days.

Take “mu-MMP13: catalytically-inactive E223A point mutant of MMP-13”: the “CFSElo CD25+ of CD4+ T cells” value (decreased from 21.1% without MMP13) was 3.2%. Under “down from 41.5% without MMP13”, the “CFSElo CD25+ of CD8+ T cells” value amounted to 2.5%.
